According to patent publication US20050209157A1, “Short bioactive peptides and methods for their use” (priority 2001, published 2005):
Where two headings read alike, the source gives them in different places. No end group written: not given here.

Tests used:
S. epidermidis C621 = assay type: cell-based, Staphylococcus epidermidis; details: mean of three; 16 to 20 hours at 35° C.
S. pyogenes M76 = test: Antimicrobial assays II, NCCLS broth microdilution MIC; assay type: cell-based, Streptococcus pyogenes; details: mean of three; 16 to 20 hours at 35° C.
[1] = test system: Staphylococcus aureus ATCC 6538; test: Antimicrobial assay I, MIC by OD measurement; assay type: cell-based; details: 37° C. for 24 hours, absorbance 620 nm
[2] = test system: Pseudomonas aeruginosa ATCC 9027; test: Antimicrobial assay I, MIC by OD measurement; assay type: cell-based; details: 37° C. for 24 hours, absorbance 620 nm
P. aeruginosa = assay type: cell-based, Pseudomonas aeruginosa; details: P. aeruginosa H744; MIC of nalidixic acid with peptide at ¼ MIC
Summary of the method: (§1)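 FIC index, computed as 0.25 plus the ratio of combination to single-agent antibiotic MIC, defines synergy when 0.5 or below. Peptide fixed at one quarter MIC while chloramphenicol or nalidixic acid was serially diluted two-fold; antibiotic-alone MICs served as baselines.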

P. aeruginosa H374 = assay type: cell-based, Pseudomonas aeruginosa; details: for MIC Cm-comb.: MIC of chloramphenicol with peptide at ¼ MIC; for MIC Nal-comb.: MIC of nalidixic acid with peptide at ¼ MIC; for FIC Index: 0.5 or less = synergy
Summary of the method: as §1

P. aeruginosa H774 = assay type: cell-based, Pseudomonas aeruginosa; details: P. aeruginosa H744; nalidixic acid + peptide at ¼ MIC; 0.5 or less = synergy
Summary of the method: as §1

SW480 = test: Anti-cancer assay, MTT, LD50; assay type: cell-based; details: SW480 colon adenocarcinoma line, 24 hours with peptide
Source text: (§2) Numbers are LD50 values (μg/mL).

PC3 = test: Anti-cancer assay, MTT, LD50; assay type: cell-based; details: 24 hours with peptide, prostate adenocarcinoma
Source text: as §2

MCF7 = test: Anti-cancer assay, MTT, LD50; assay type: cell-based; details: MCF7 breast adenocarcinoma line, MTT, 24 hours with peptide
Source text: as §2

H1299 = test: Anti-cancer assay, MTT, LD50; assay type: cell-based; details: 24 hours with peptide, lung large cell carcinoma
Source text: as §2

HeLaS3 = test: Anti-cancer assay, MTT, LD50; assay type: cell-based; details: 24 hours with peptide, cervical carcinoma
Source text: as §2

BMKC = test: Anti-cancer assay, MTT, LD50; assay type: cell-based; details: BMKC cloned melanoma line, 24 hours with peptide
Source text: as §2

S. pneumoniae C719 = test: Antimicrobial assays II, NCCLS broth microdilution MIC; assay type: cell-based, Streptococcus pneumoniae; details: mean of three, in µg/mL
S. pyogenes ATCC19615 = test: as above; assay type: cell-based, Streptococcus pyogenes; details: mean of three, in µg/mL
in vitro [3] = assay type: cell-based, human; details: human, human red blood cells, pH 7, hemolytic assay, concentration at 50% hemolysis, 1 hour at 37° C.; read-out: LD50
WI38 = details: MTT, 24 hours with peptide; normal fibroblast line
P. acne ATCC 6919 = test: Antimicrobial assays II, NCCLS broth microdilution MIC; assay type: cell-based, Propionibacterium acnes; details: mean of three, in µg/mL
S. aureus (MRSA) = assay type: cell-based, Staphylococcus aureus; details: mean of three; 16 to 20 hours at 35° C.
S. pneumoniae C718 = test: Antimicrobial assays II, NCCLS broth microdilution MIC; assay type: cell-based, Streptococcus pneumoniae; details: mean of three
in vitro [4] = details: human, WI38 normal lung fibroblast cells, LD50 WI38, WI38 normal lung fibroblast line, MTT, 24 hours with peptide
[5] = test system: yeast (Saccharomyces cerevisiae); test: Antimicrobial assay I, yeast assay in RPMI 1640; assay type: cell-based; details: RPMI 1640 media
[6] = chloramphenicol + peptide at ¼ MIC
[7] = nalidixic acid + peptide at ¼ MIC, FIC=0.25+MIC comb/MIC alone

| Substance | S. epidermidis C621 MIC (S. epidermidis C621) | S. pyogenes M76 MIC (S. pyogenes M76) | staph6538 (MIC) [1] | paerug9027 (MIC) [2] | MIC Nal-comb. (P. aeruginosa) | MIC Cm-comb. (P. aeruginosa H374) | MIC Nal-comb. (P. aeruginosa H374) | FIC Index (P. aeruginosa H374; [6]) | FIC Index (P. aeruginosa H374; [7]) | FIC Index (P. aeruginosa H774) | LD50 SW480 (SW480) | PC3 LD50 (PC3) | LD50 MCF7 (MCF7) | H1299 LD50 (H1299) | HeLaS3 LD50 (HeLaS3) | LD50 BMKC (BMKC) | S. pneumoniae MIC (S. pneumoniae C719) | S. pyogenes MIC (S. pyogenes ATCC19615) | HC50 at 1 h (in vitro [3]) | WI38 LD50 (WI38) | further results |
| --- | --- | --- | --- | --- | --- | --- | --- | --- | --- | --- | --- | --- | --- | --- | --- | --- | --- | --- | --- | --- | --- |
| FALAKLAKKAKAKLKKALKAL-NH2 [P26] | 4 µg/mL | 4 µg/mL | 10 µg/mL | 15 µg/mL | 624 µg/mL | 8 µg/mL | 2500 µg/mL | 0.75 | 0.75 | 1.25 | 8 µg/mL | 125 µg/mL | 74 µg/mL | 84 µg/mL | 150 µg/mL | 94 µg/mL | 16 | 4 | 90 µg/mL | 96 µg/mL | P. acne MIC (P. acne ATCC 6919): 4; S. aureus (MRSA) MIC (S. aureus (MRSA)): 32 µg/mL; S. pneumoniae MIC (S. pneumoniae C718): > 128 µg/mL; CC50 at 24 h (in vitro [4]): 96 µg/mL; yeast (MIC or MFC) [5]: > (> indicates greater than 200 μg/mL) |
| FAKLLAKLAKKVL-NH2 [P124] | 4 µg/mL | 16 µg/mL | 5 µg/mL | 100 µg/mL | 624 µg/mL | 16 µg/mL | 2500 µg/mL | 1.25 | 0.75 | 1.25 | 9 µg/mL | 10 µg/mL | 18 µg/mL | 30 µg/mL | 14 µg/mL | 10 µg/mL | 64 | 16 | 55 µg/mL | 21 µg/mL | P. acne MIC (P. acne ATCC 6919): 8; S. aureus (MRSA) MIC (S. aureus (MRSA)): 8 µg/mL; S. pneumoniae MIC (S. pneumoniae C718): > 128 µg/mL; CC50 at 24 h (in vitro [4]): 21 µg/mL; yeast (MIC or MFC) [5]: 100 µg/mL |
| FAKLLAKLAKKLL-NH2 [P43] | 2 µg/mL | 2 µg/mL | 5 µg/mL | 100 µg/mL | 624 µg/mL | 16 µg/mL | 5000 µg/mL | 1.25 | 1.25 | 1.25 | 9 µg/mL | 12 µg/mL | 9 µg/mL | 6 µg/mL | 15 µg/mL | 7 µg/mL | 4 | 2 | 20 µg/mL | 5 µg/mL | P. acne MIC (P. acne ATCC 6919): 2; S. aureus (MRSA) MIC (S. aureus (MRSA)): 4 µg/mL; S. pneumoniae MIC (S. pneumoniae C718): 8 µg/mL; CC50 at 24 h (in vitro [4]): 5 µg/mL; yeast (MIC or MFC) [5]: 25 µg/mL |
| FALALKKALKALKKAL-NH2 [P34] | 8 µg/mL | 4 µg/mL | 5 µg/mL | 50 µg/mL | 624 µg/mL | 16 µg/mL | 2500 µg/mL | 1.25 | 0.75 | 1.25 | 35 µg/mL | 9 µg/mL | 21 µg/mL | 24 µg/mL | 62 µg/mL | 53 µg/mL | 8 | 4 | 200 µg/mL | 40 µg/mL | P. acne MIC (P. acne ATCC 6919): 8; S. aureus (MRSA) MIC (S. aureus (MRSA)): 16 µg/mL; S. pneumoniae MIC (S. pneumoniae C718): 8 µg/mL; CC50 at 24 h (in vitro [4]): 40 µg/mL; yeast (MIC or MFC) [5]: 25 µg/mL |
| FALALKALKKLAKKLKKLAKKAL-NH2 [P25] | 4 µg/mL | 8 µg/mL | 10 µg/mL | 5 µg/mL | 156 µg/mL | 4 µg/mL | 2500 µg/mL | 0.5 | 0.75 | 0.5 | 12 µg/mL | 12 µg/mL | 10 µg/mL | 37 µg/mL | 20 µg/mL | 36 µg/mL | 8 | 8 | 16 µg/mL | 24 µg/mL | P. acne MIC (P. acne ATCC 6919): 2; S. aureus (MRSA) MIC (S. aureus (MRSA)): 16 µg/mL; S. pneumoniae MIC (S. pneumoniae C718): 64 µg/mL; CC50 at 24 h (in vitro [4]): 24 µg/mL; yeast (MIC or MFC) [5]: 25 µg/mL |
| FAKKLAKKLAKLL-NH2 [P75] | 8 µg/mL | 8 µg/mL | 5 µg/mL | 5 µg/mL | 624 µg/mL | 8 µg/mL | 2500 µg/mL | 0.75 | 0.75 | 1.25 | 17 µg/mL | 54 µg/mL | 42 µg/mL | 80 µg/mL | 74 µg/mL | 24 µg/mL | 64 | 4 | 750 µg/mL | 80 µg/mL | P. acne MIC (P. acne ATCC 6919): 16; S. aureus (MRSA) MIC (S. aureus (MRSA)): 32 µg/mL; S. pneumoniae MIC (S. pneumoniae C718): > 128 µg/mL; CC50 at 24 h (in vitro [4]): 80 µg/mL; yeast (MIC or MFC) [5]: 50 µg/mL |
